Measurements reported in patent US10144730B2, “Inhibitors of c-Jun-N-terminal kinase (JNK)” (Dana-Farber Cancer Institute, Inc., priority 2011, dated 2018).
Entries after “also recorded” stand apart in the source; their conditions may differ. Where two headings read alike, the source gives them in different places. One block for each compound: values may come before it.

Legend:
[1] = molecular target: T1, JNK1 (Homo sapiens, UniProt P45983); settings: Table 2, *Literature values; cited from earlier work
T1 sequence (P45983 whole entry): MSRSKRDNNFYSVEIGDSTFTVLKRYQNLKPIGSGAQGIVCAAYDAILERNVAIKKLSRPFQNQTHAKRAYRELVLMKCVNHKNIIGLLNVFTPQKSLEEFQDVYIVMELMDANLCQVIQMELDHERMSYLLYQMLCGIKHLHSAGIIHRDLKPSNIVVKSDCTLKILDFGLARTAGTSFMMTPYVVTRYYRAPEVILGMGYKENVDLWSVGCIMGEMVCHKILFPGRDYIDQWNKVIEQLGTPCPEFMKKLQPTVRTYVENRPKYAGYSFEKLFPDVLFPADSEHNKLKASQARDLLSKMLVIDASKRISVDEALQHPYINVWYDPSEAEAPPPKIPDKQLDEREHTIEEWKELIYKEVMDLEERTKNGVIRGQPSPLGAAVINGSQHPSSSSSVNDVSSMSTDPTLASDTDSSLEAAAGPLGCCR

[2] = test system: c-Jun phosphorylation; assay: High throughput microscopy of c-Jun phosphorylation in A375 cells; assay type: cell-based; settings: A375 cells, anisomycin stimulation, read-out: p-c-Jun EC50 (nM) A375
Method: (§1) Cells were fixed in 2% paraformaldehyde for 10 min at room temperature and washed with PBS-T (Phosphate Buffered Saline, 0.1% Tween 20). Cells were permeabilized in methanol for 10 min at room temperature, washed with PBS-T, and blocked in Odyssey Blocking Buffer (LI-COR Biosciences) for 1 hour at room temperature. Cells were incubated overnight at 4° C. with antibody specific for Erk1/2(pT202/pY204), Akt(pS473), c-Jun(pS73), pP38(T180/Y182) and pSTAT3(Y705) (Cell Signaling Technology), pRSK1(S380) and pMSK1(S376) (Epitomics), and NF-κB (Santa Cruz Biotechnology) diluted 1:400 in Odyssey Blocking Buffer. […] Cells were washed twice with PBS and imaged in an imageWoRx high-throughput microscope (Applied Precision). Data were plotted using DataPflex.
(§2) In parallel with biochemical evaluation, the ability of the compounds to inhibit JNK activity in cells was investigated using two independent assays formats. This is a critical issue because there are several reported JNK inhibitors with nanomolar biochemical potency that translate into micromolar cellular inhibitors. The most well characterized direct phosphorylation substrate of JNK is the transcription factor c-Jun.

[3] = test system: c-Jun phosphorylation; assay: LanthaScreen TR-FRET cell assay for c-Jun phosphorylation in HeLa cells; assay type: cell-based; settings: for EC50: Hela cells, TNF-α stimulation, read-out: p-c-Jun EC50 (nM) Hela
Method: Phosphorylation was determined by measuring the time resolved FRET (TR-FRET) between a terbium labeled phospho-c-Jun specific antibody and GFP. The cells were plated in white tissue culture treated 384 well plates at a density of 10,000 cell per well in 32 μL assay medium (Opti-MEM®, supplemented with 0.5% charcoal/dextran-treated FBS, 100 U/ml penicillin and 100 μg/ml streptomycin, 0.1 mM nonessential amino acids, 1 mM sodium pyruvate, 25 mM Hepes, pH 7.3, and lacking phenol red). After overnight incubation, cells were pretreated for 90 minutes with compound (at indicated concentration) diluted in 4 μL assay buffer followed by 30 min of stimulation with 5 ng/ml of TNF-α in 4 μL assay buffer (final assay volume was 40 μl). The medium was then removed by aspiration, and the cells were lysed by adding 20 μl of lysis buffer (20 mM Tris-HCl, pH 7.6, 5 mM EDTA, 1% Nonidet P-40 substitute, 5 mM NaF, 150 mM NaCl, and 1:100 protease and phosphatase inhibitor mix, SIGMA P8340 and P2850, respectively). The lysis buffer included 2 nM of the terbium-labeled anti-c-Jun (pSer73) detection antibodies (Life Technologies). After allowing the assay to equilibrate for 60 minutes at room temperature, TR-FRET emission ratios were determined on a BMG Pherastar fluorescence plate reader (BMG Labtech, Cary, N.C.) using the following parameters: excitation at 340 nm; emission at 520 nm and 490 nm; 100 μs lag time; 200 μs integration time; and emission ratio=Em520/Em490. All data were analyzed and plotted using Graphpad Prism 4.
as §2

[4] = molecular target: JNK2 (Homo sapiens, UniProt P45984); settings: Table 2, *Literature values; cited from earlier work
Sequence of JNK2 (P45984 whole entry): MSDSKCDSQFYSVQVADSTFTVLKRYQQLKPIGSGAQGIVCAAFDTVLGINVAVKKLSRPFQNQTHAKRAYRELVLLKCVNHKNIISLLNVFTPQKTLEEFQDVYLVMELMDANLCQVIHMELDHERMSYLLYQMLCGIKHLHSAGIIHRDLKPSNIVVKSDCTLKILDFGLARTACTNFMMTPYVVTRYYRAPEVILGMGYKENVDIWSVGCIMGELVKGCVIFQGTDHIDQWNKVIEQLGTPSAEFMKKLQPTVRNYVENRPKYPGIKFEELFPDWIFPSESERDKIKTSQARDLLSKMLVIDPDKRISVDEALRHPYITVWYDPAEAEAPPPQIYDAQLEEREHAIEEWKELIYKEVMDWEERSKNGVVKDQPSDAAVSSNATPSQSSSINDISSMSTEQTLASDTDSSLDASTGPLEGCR

[5] = test system: 260 kinases in A375 cells; assay: KiNativ cellular kinase selectivity profiling in A375 cells; assay type: cell-based; settings: 1 μM, 3 hours
Method: FIG. 9 illustrates the cellular kinase selectivity as assessed using the KiNativ™ technology.
The kinase selectivity of several key compounds was first evaluated using a chemical proteomic approach named KiNativ which detects 260 kinases in A375 cells (ActivX Biosciences). To probe the intracellular targets of the compounds, A375 cells were incubated with the inhibitors and then looked for protection of labeling by an ATP-biotin probe that non-specifically labels conserved lysines on kinases and other nucleotide-dependent enzymes. This provided an important advantage relative to the in vitro kinase selectivity profiling because in vitro the short incubation times and presence of reactive thiols in the buffers can potentially cause false negatives for acrylamide-modified kinase inhibitors. […] Since cysteine-directed covalent kinase inhibitors will sometimes cross-react with kinases that contain an equivalently placed cysteine, a sequence alignment was performed to identify all kinases which have a cysteine near JNK1 Cys116 (FIG. 10). […] The dramatic selectivity improvement that results from introduction of this flag-methyl group has been previously reported for imatinib (Zimmermann et al., 1996).

[6] = molecular target: JNK3 (Homo sapiens, UniProt P53779); assay: Biochemical JNK3 kinase inhibition (Z'-lyte format)
Sequence of JNK3 (P53779 whole entry): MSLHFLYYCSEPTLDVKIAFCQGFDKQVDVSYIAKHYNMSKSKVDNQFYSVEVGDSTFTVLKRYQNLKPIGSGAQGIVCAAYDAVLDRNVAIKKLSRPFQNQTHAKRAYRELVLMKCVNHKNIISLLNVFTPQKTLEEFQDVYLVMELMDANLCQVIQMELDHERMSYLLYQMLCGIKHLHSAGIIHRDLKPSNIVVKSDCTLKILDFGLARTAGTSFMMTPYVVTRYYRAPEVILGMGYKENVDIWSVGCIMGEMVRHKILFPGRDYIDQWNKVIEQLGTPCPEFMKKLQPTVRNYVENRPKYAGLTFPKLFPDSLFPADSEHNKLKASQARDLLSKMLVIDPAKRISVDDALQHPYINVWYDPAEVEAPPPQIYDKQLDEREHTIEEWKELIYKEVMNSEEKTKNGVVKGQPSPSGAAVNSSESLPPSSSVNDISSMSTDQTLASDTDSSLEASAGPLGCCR

[7] = test system: JNK; assay: Binding kinetics (pulse-chase) assay, ATP-biotin labeling of JNK in A375 cells; assay type: cell-based; settings: 1 μM compound
Method: A375 cells were incubated with inhibitors for the indicated amount of time after which cell lysates were prepared and labeled with ATP-biotin. Biotinylated proteins were pulled down with streptavidin beads and material bound to the beads was eluted and separate by SDS-PAGE followed by Western blot analysis for JNK.
A375 cells (ATCC® CRL-1619™) were pre-treated with 1 μM compound for the indicated amounts of time. Remove the medium and wash 3 times with PBS. Resuspend the cell pellet with 1 mL Lysis Buffer (1% NP-40, 1% CHAPS, 25 mM Tris, 150 mM NaCl, Phosphatase Inhibitor Cocktail, Roche 04906845001, and Protease Inhibitor Cocktail Roche 11836170001). Rotate end-to-end for 30 min at 4° C. Lysates were cleared by centrifugation at 14000 rpm for 15 min in the Eppendorf. The cleared lysates gel filtered into Kinase Buffer (0.1% NP-40, 20 mM HEPES, 150 mM NaCl, Phosphatase Inhibitor Cocktail, and Protease Inhibitor Cocktail) using Bio-Rad 10DG colums. The total protein concentration of the gel-filtered lysate should be around 5-15 mg/ml. […]
In order to evaluate the kinetics with which JNK-IN-5 could covalently modify JNK in cells, a pulse-chase assay was developed . […] Streptavidin affinity chromatography is then used to isolate all biotinylated proteins and JNK protein is detected following SDS-PAGE and Western blotting (FIG. 8). […]

[8] = test system: NF-kB nuclear translocation; assay: High-throughput microscopy, NF-kB nuclear translocation; assay type: cell-based; settings: Homo sapiens, A-375, A375 cells, TNF-α stimulation, read-out: Cellular EC50 NF-kB
Method: (§3) A375 cells were stimulated with anisomycin (FIGS. 14A and 14C to 14F), IGF-1 (FIG. 14B), IL-6 (FIG. 14G), and TNF-α (FIG. 14H) for sixty minutes. The output of multiple signaling pathways was measured using high throughput microscopy at multiple concentrations of four JNK inhibitors and a control compound specific to each pathway DMSO (FIG. 14A), MK2206 (allosteric Akt inhibitor, Haoyuan Chemexpress Co., Limited. Hirai, et al., 2010) (FIG. 14B), PD0325901 (allosteric Mek inhibitor, Haoyuan Chemexpress Co., Limited. Barrett, et al., 2008) (FIGS. 14C and 14D), SB239063 (ATP-competitive p38 inhibitor, Haoyuan Chemexpress Co., Limited. Underwood et al., 2000) (FIGS. 14E and 14F), KIN001-040 (ATP-competitive JAK1,2,3 inhibitor, Haoyuan Chemexpress Co., Limited. Thompson et al., 2002) (FIG. 14G), and KIN001-208 (IKK inhibitor VIII, Haoyuan Chemexpress Co., Limited., Murata, et al., 2004) (FIG. 14H).
(§4) Cells were plated at 7500 cells/well in 96-well microscopy plates (Corning) in recommended media for 24 hours, and then starved in media lacking serum for 16 hours. Cells were pre-treated for 180 minutes with 10-fold stock solutions of JNK inhibitors and for 10 min with control compounds MK2206, PD0325901, SB239063, KIN040, and KIN208 and treated with 10-fold stock solutions of IGF-1, IL-6, TNF-α (all PeproTech), or anisomycin for 60 minutes. Cells were fixed in 2% paraformaldehyde for 10 min at room temperature and washed with PBS-T (Phosphate Buffered Saline, 0.1% Tween 20). Cells were permeabilized in methanol for 10 min at room temperature, washed with PBS-T, and blocked in Odyssey Blocking Buffer (LI-COR Biosciences) for 1 hour at room temperature. Cells were incubated overnight at 4° C. with antibody specific for Erk1/2(pT202/pY204), Akt(pS473), c-Jun(pS73), pP38(T180/Y182) and pSTAT3(Y705) (Cell Signaling Technology), pRSK1(S380) and pMSK1(S376) (Epitomics), and NF-κB (Santa Cruz Biotechnology) diluted 1:400 in Odyssey Blocking Buffer. Cells were washed three times in PBS-T and incubated with rabbit-specific secondary antibody labeled with Alexa Fluor 647 (Invitrogen) diluted 1:2000 in Odyssey Blocking Buffer. Cells were washed once in PBS-T and once in PBS and incubated in 250 ng/ml Hoechst 33342 (Invitrogen) and 1:1000 Whole Cell Stain (blue; Thermo Scientific) solution. Cells were washed twice with PBS and imaged in an imageWoRx high-throughput microscope (Applied Precision). Data were plotted using DataPflex. […]

[9] = test system: phosphorylation of Msk1; assay: High-throughput microscopy, phosphorylation of Msk1; assay type: cell-based; settings: Homo sapiens, A-375, A375 cells, anisomycin stimulation, read-out: Cellular EC50 pMSK1
Method: A375 cells were stimulated with anisomycin (FIGS. 14A and 14C to 14F), IGF-1 (FIG. 14B), IL-6 (FIG. 14G), and TNF-α (FIG. 14H) for sixty minutes.
as §1

[10] = test system: phosphorylation of Erk; assay: High-throughput microscopy, phosphorylation of Erk; assay type: cell-based; settings: Homo sapiens, A-375, A375 cells, anisomycin stimulation, read-out: Cellular EC50 pErk
Method: as §3, §4

[11] = test system: panel of 442 distinct kinases; assay: KINOMEscan kinase-binding panel; settings: concentration of 1.0 μM
[12] = test system: phosphorylation of Akt; assay: High-throughput microscopy, phosphorylation of Akt; assay type: cell-based; settings: Homo sapiens, A-375, A375 cells, IGF-1 stimulation, read-out: Cellular EC50 pAkt
Method: as §3, §4

[13] = test system: phosphorylation of p38; assay: High-throughput microscopy, phosphorylation of p38; assay type: cell-based; settings: Homo sapiens, A-375, A375 cells, anisomycin stimulation, read-out: Cellular EC50 pP38
Method: as §3, §4

[14] = test system: phosphorylation of STAT3; assay: High-throughput microscopy, phosphorylation of STAT3; assay type: cell-based; settings: Homo sapiens, A-375, A375 cells, IL-6 stimulation, read-out: Cellular EC50 pSTAT3
Method: as §3, §4

[15] = molecular target: additional kinase targets; assay: Follow-up enzymatic IC50 or Kd on potential additional kinase targets; settings: FIG. 12
Text: Scores were obtained from the profiling against a […] using Kinome Scan™ technology as illustrated in FIG. 11.
To complement the KiNativ profiling, the in vitro kinase selectivity of several key compounds was comprehensively evaluated by two complementary approaches: a kinase-binding assays against a panel of 442 distinct kinases using the KINOMEscan methodology (DiscoverX) and a standard radioactivity-based enzymatic assays against a panel of 124 kinases (The National Centre for Protein Kinase Profiling in Dundee). […] It was attempted to confirm all these potent binding targets using either an enzymatic kinase assay or through the measurement of a dissociation constant to the kinase in question.

[16] = molecular target: T1, JNK1; assay: Biochemical JNK1 kinase inhibition (Z'-lyte format); settings: Table 2
[17] = test system: phosphorylation of RSK; assay: High-throughput microscopy, phosphorylation of RSK; assay type: cell-based; settings: Homo sapiens, A-375, A375 cells, anisomycin stimulation, read-out: Cellular EC50 pRSK
Method: as §3, §4

EC50 [2]: 2400 nM | IC50's for c-Jun phosphorylation in both cellular assay formats ([3]; HeLa and A375 formats, tested in parallel): micromolar range | EC50 [3]: 2020 nM
SMILES: N#CC(c1ccnc(NCCc2cccnc2)n1)c1nc2ccccc2s1 (centres unmarked) [AS601245, reference compound]
IC50 [1]: 150 nM | IC50 [4]: 220 nM

EC50 ([2]; Homo sapiens, A-375): 1900 nM | EC50 ([3]; Homo sapiens): 6760 nM | cellular IC50 fold higher than covalent analog JNK-IN-5 ([3]; cellular c-Jun phosphorylation, relative to JNK-IN-5): 50 fold | IC50 ([6]; Table 2): 148 nM | fold less potent biochemical IC50 ([6]; on JNK1, 2, and 3, relative to JNK-IN-5): ~100 fold
SMILES: CCC(=O)Nc1cccc(C(=O)Nc2ccc(Nc3nccc(-c4cccnc4)n3)cc2)c1 [JNK-IN-6]
KiNativ result for JNK after live cell treatment [5]: did not inhibit JNK activity | protection of JNK from labeling by ATP-biotin [7]: incapable of protecting JNK from labeling by ATP-biotin; also recorded: no protection of JNK labeling

SMILES: CN(C)C/C=C/C(=O)Nc1cccc(C(=O)Nc2ccc(Nc3nccc(-c4cccnc4)n3)cc2)c1 [JNK-IN-7]
EC50 [8]: > 10 µM | EC50 ([3]; Homo sapiens): 130 nM | EC50 [9]: > 10 µM | EC50 [10]: > 10 µM | number of kinases with binding inhibition of 95% or more [11]: approximately 14 kinases | EC50 [12]: > 10 µM | EC50 [13]: > 10 µM | EC50 [14]: > 10 µM | Kd or IC50 against eight additional kinases [15]: ≤ 0.1 µM | IC50 [16]: 1.54 nM | EC50 [17]: > 10 µM
